Experimental data published in patent publication US9012470B2 (Dart NeuroScience (Cayman) Ltd., priority 2010, dated 2015).
Counter-ions that a name gives are not always drawn.

Legend:
[1] = tested on: benzodiazepine site of GABAA; test: Binding assay, benzodiazepine site of GABAA (binding assay 1: rat brain, (3H)-flunitrazepam; binding assay 2: bovine hippocampal membranes, [3H]-RY80); settings: radioligand binding; for % Inhibition at 10 μM: 10 μM test compound; for % Inhibition at 0.1 μM: 0.1 μM test compound
Experimental: The ability of a compound disclosed herein to act as ligand to the benzodiazepine site of GABAA can be determined using pharmacological models which are well known in the art using the following assay.
Binding assay 1: Whole brain (except cerebellum) of male Wistar derived rats weighing 175±25 g were used to prepare GABAA central benzodiazepine receptor in Na—K phosphate buffer pH 7.4. A 5 mg aliquot was incubated with 1 nM (^3H)-flunitrazepam for 60 minutes at 25° C. Experiments were performed in the presence or absence of 30 μM of GABA. Non-specific binding was estimated in the presence of 10 μM of diazepam. Membranes were filtered and washed, the filters were then counted to determine (^3H)-flunitrazepam specifically bound. Test compounds were tested in duplicate according to the required concentrations (Damm, H. W., et al. (1978) Res. Comm. Chem. Pathol. Pharmacol. 22: 597-560 incorporated herein in its entirety; Speth, R. C., et al. (1979) Life Sci. 24: 351-357 incorporated herein in its entirety).
Receptor Source: Bovine hippocampal membranes
Radioligand: [3H]-RY80 (40-80 Ci/mmol)
Final ligand concentration—[0.8 nM]
Non-specific Determinant: L-655,708—[0.5 μM]
Binding assay 2 followed procedures based on Li and Szabo (Li M., Szabo A., Rosenberg H. Evaluation of native GABAA receptors containing an α5 subunit. Eur. J. Pharmacol. 413: 63-72 (2001)). Incubation Conditions: Reactions are carried out in 50 mM Tris-Citrate (pH 7.8) containing 200 mM NaCl at 0-4° C. for 60 minutes. The reaction is terminated by rapid vacuum filtration onto glass fiber filters. Radioactivity trapped onto the filters is determined and compared to control values in order to ascertain any interactions of test compound with the benzodiazepine (central) binding site.

GABAA receptors = test: Electrophysiology assay, two-electrode voltage clamp in Xenopus oocytes expressing GABAA receptors; format: cell-based; settings: GABA EC10, screening concentration of 10 μM, subunit combination not stated
Experimental: mRNA was prepared from lyophilized plasmid pellets containing cDNA inserts encoding the specific GABAA receptor subunit. cDNAs encoding the α2, α3, and γ3 subunits were subcloned into pBluescript, SK^−. cDNAs encoding the α1 and α5 subunits were subcloned into prC while cDNA encoding the β2 subunit was subcloned into pcDNA1. The cDNA construct encoding the γ2s subunit is in the pGH19 expression construct. Overnight cultures of transformed DH5a bacterial cells were performed to grow sufficient quantities for maxiprep isolation of the plasmid cDNA. The resulting plasmid cDNA was linearized by digestion with an appropriate restriction enzyme that cleaves distal to the cDNA insert (XbaI for α1,2, β2, and γ3 or NotI for α3,5 and γ2, respectively). Following digestion, plasmid cDNA was treated with proteinase K and extracted with phenol/chloroform/isoamyl alcohol, followed by ethanol precipitation. cDNA quality was assessed by agarose-gel electrophoresis (1.5% agarose gel). Samples were stored at −20° C. until use. In vitro transcription was performed with T7 RNA polymerase. mRNA was then stored at −80° C. until use. Plasmids were linearized with appropriate restriction enzymes before in vitro transcription using the Message Machine kit (Ambion, Austin, Tex.).
GABAA Receptor Expression in Xenopus oocytes.
GABAA receptor expression in Xenopus oocytes: Following 45 min of 0.15% Tricaine anesthesia, an ovarian section containing the follicular oocytes was removed from the frog through a lateral abdominal incision. Oocytes were immediately placed in a calcium-free solution (NaCl 96 mM, MgCl2 1 mM, KCl 2 mM, Hepes 50 mM, pyruvate 2.5 mM, gentamycin 100 μg/mL, penicillin-streptomycin 50 U/mL, pH 7.4). Following 1.5-2 hour incubation in 0.2% collagenase (type II, Sigma Chemical Co., St. Louis, Mo.) at room temperature, individual Dumont stage V and VI oocytes were transferred to an incubator and maintained overnight in Barth's solution (NaCl 84 mM, NaHCO3 2.4 mM, MgSO4 0.82 mM, KCl 1 mM, Ca(NO3)2 0.33 mM, CaCl2 0.41 mM, Tris/HCl 7.5 mM, pyruvate 2.5 mM, gentamycin 50 μg/mL, penicillin-streptomycin, 100 units/mL, pH 7.4) at 18-20° C. and used for experiments 1-5 days post-injection. Oocytes were injected solution using an electronic microinjector (Drummond, Broomall, Pa.) with 50 nL of RNA containing 0.3-0.5 ng of each subunit RNA in a 1:1:1 ratio. The injected oocytes were used for experiments after 1-5 days of incubation in Barth's solution at 18-20° C.
Measurements of ion currents from oocytes expressing GABAA receptors were performed using a Warner two-electrode voltage-clamp amplifier (Warner Instruments, Inc., Foster City, Calif.) (Park-Chung, M., et al. (1999) Brain Res. 830: 72-87 incorporated herein in its entirety). Microelectrodes were fabricated from borosilicate glass capillaries with a programmed pipette puller (Sutter Instrument Co., Calif.). Microelectrode resistance was 1-3 MΩ when filled with 3 M KCl. The oocyte recording chamber was continuously perfused with Ringer solution. Oocytes were clamped at a holding potential of −70 mV during data acquisition. The membrane current was filtered at 10 Hz and sampled at 100 Hz. Compounds were applied by a gravity-driven external perfusion system. The working volume of the recording chamber was 30 μL and the rate of the perfusion was approximately 50 μL/sec. Compound application was 10-20 sec followed by a 90 sec wash. Data acquisition and external perfusion was computer controlled by custom-developed software. All experiments were performed at room temperature (22-24° C.). Dose-response data from each oocyte were fitted to the Hill equation by non-linear regression using the equation: IGABA=Emax/(1+(EC50/c)^n^H)
Emax is the maximum response, EC50 is the concentration producing 50% of the maximal response, nH is the Hill coefficient and c is the concentration of agonist. […]

Compound | % Inhibition at 10 μM [1] | EP Modulation (GABAA receptors) | % Inhibition at 0.1 μM [1]
CCNC(=O)n1ncc2c3nn(-c4cccc(Cl)c4)c(=O)c-3c[nH]c21 [Compound 6ad, 2-(3-chlorophenyl)-N-ethyl-3-oxo-2,3-dihydrodipyrazolo[3,4-b:3′,4′-d]pyridine-6(5H)-carboxamide] | A (A indicates % inhibition >80%) | E (E indicates negative modulation <20%) | 
CCNC(=O)n1ncc2c3nn(-c4cc(C(F)(F)F)cc(C(F)(F)F)c4)c(=O)c-3c[nH]c21 [Compound 6q, 2-(3,5-bis(trifluoromethyl)phenyl)-N-ethyl-3-oxo-2,3-dihydrodipyrazolo[3,4-b:3′,4′-d]pyridine-6(5H)-carboxamide] | C (C indicates % inhibition <20%) |  | 
CC(C)NC(=O)n1ncc2c3nn(-c4cc(C(F)(F)F)cc(C(F)(F)F)c4)c(=O)c-3c[nH]c21 [Compound 6r, 2-(3,5-bis(trifluoromethyl)phenyl)-N-isopropyl-3-oxo-2,3-dihydrodipyrazolo[3,4-b:3′,4′-d]pyridine-6(5H)-carboxamide] | B (B indicates % inhibition <80% and >20%) |  | 
CCNC(=O)n1ncc2c3nn(-c4ccc(Cl)c(C(F)(F)F)c4)c(=O)c-3c[nH]c21 [Compound 6s, 2-(4-chloro-3-(trifluoromethyl)phenyl)-N-ethyl-3-oxo-2,3-dihydrodipyrazolo[3,4-b:3′,4′-d]pyridine-6(5H)-carboxamide] | B (B indicates % inhibition <80% and >20%) |  | 
CC(C)NC(=O)n1ncc2c3nn(-c4ccc(Cl)c(C(F)(F)F)c4)c(=O)c-3c[nH]c21 [Compound 6t, 2-(4-chloro-3-(trifluoromethyl)phenyl)-N-isopropyl-3-oxo-2,3-dihydrodipyrazolo[3,4-b:3′,4′-d]pyridine-6(5H)-carboxamide] | C (C indicates % inhibition <20%) |  | 
CC(C)NC(=O)n1ncc2c3nn(-c4ccsc4)c(=O)c-3c[nH]c21 [Compound 6v, N-isopropyl-3-oxo-2-(thiophen-3-yl)-2,3-dihydrodipyrazolo[3,4-b:3′,4′-d]pyridine-6(5H)-carboxamide] | B (B indicates % inhibition <80% and >20%) |  | 
CC(C)NC(=O)n1ncc2c3nn(-c4ccc(Br)cc4)c(=O)c-3c[nH]c21 [Compound 6x, 2-(4-bromophenyl)-N-isopropyl-3-oxo-2,3-dihydrodipyrazolo[3,4-b:3′,4′-d]pyridine-6(5H)-carboxamide] | A (A indicates % inhibition >80%) |  | 
CN(C)C(=O)n1ncc2c3nn(-c4ccccc4)c(=O)c-3c[nH]c21 [Compound 7c, N,N-dimethyl-3-oxo-2-phenyl-2,3-dihydrodipyrazolo[3,4-b:3′,4′-d]pyridine-6(5H)-carboxamide. TFA] | B (B indicates % inhibition <80% and >20%) |  | 
CCNC(=O)n1cc2[nH]cc3c(=O)n(-c4ccc(Cl)cn4)nc-3c2c1 [Compound 13h, 2-(5-chloropyridin-2-yl)-N-ethyl-3-oxo-2,3-dihydropyrazolo[3,4-d]pyrrolo[3,4-b]pyridine-7(5H)-carboxamide] | A (A indicates % inhibition >80%) |  | A (A indicates % inhibition >80%)
CC(C)NC(=O)n1cc2[nH]cc3c(=O)n(-c4ccccc4)nc-3c2c1 [Compound 13j, N-Isopropyl-3-oxo-2-phenyl-2,3-dihydropyrazolo[3,4-d]pyrrolo[3,4-b]pyridine-7(5H)-carboxamide] | A (A indicates % inhibition >80%) |  | B (B indicates % inhibition <80% and >20%)
O=C(Nc1ccccc1)n1cc2[nH]cc3c(=O)n(-c4ccccc4)nc-3c2c1 [Compound 13k, 3-Oxo-N,2-diphenyl-2,3-dihydropyrazolo[3,4-d]pyrrolo[3,4-b]pyridine-7(5H)-carboxamide] | A (A indicates % inhibition >80%) |  | B (B indicates % inhibition <80% and >20%)
CNC(=O)n1ccc2c3nn(-c4ccccc4)c(=O)c-3c[nH]c21 [Compound 17a, N-Methyl-3-oxo-2-phenyl-2,3-dihydropyrazolo[3,4-d]pyrrolo[2,3-b]pyridine-6(5H)-carboxamide] | C (C indicates % inhibition <20%) |  | C (C indicates % inhibition <20%)
CCNC(=O)n1ccc2c3nn(-c4ccccc4)c(=O)c-3c[nH]c21 [Compound 17b, N-Ethyl-3-oxo-2-phenyl-2,3-dihydropyrazolo[3,4-d]pyrrolo[2,3-b]pyridine-6(5H)-carboxamide] | B (B indicates % inhibition <80% and >20%) |  | C (C indicates % inhibition <20%)
CC(C)NC(=O)n1ccc2c3nn(-c4ccccc4)c(=O)c-3c[nH]c21 [Compound 17c, N-Isopropyl-3-oxo-2-phenyl-2,3-dihydropyrazolo[3,4-d]pyrrolo[2,3-b]pyridine-6(5H)-carboxamide] | C (C indicates % inhibition <20%) |  | C (C indicates % inhibition <20%)
O=C(Nc1ccccc1)n1ccc2c3nn(-c4ccccc4)c(=O)c-3c[nH]c21 [Compound 17d, 3-Oxo-N,2-diphenyl-2,3-dihydropyrazolo[3,4-d]pyrrolo[2,3-b]pyridine-6(5H)-carboxamide] | C (C indicates % inhibition <20%) |  | C (C indicates % inhibition <20%)
CCNC(=S)n1ccc2c3nn(-c4ccccc4)c(=O)c-3c[nH]c21 [Compound 17e, N-ethyl-3-oxo-2-phenyl-2,3-dihydropyrazolo[3,4-d]pyrrolo[2,3-b]pyridine-6(5H)-carbothioamide] | B (B indicates % inhibition <80% and >20%) |  | 
CCNC(=O)n1ccc2c3nn(-c4ccc(Cl)cn4)c(=O)c-3c[nH]c21 [Compound 17f, 2-(5-Chloropyridin-2-yl)-N-ethyl-3-oxo-2,3-dihydropyrazolo[3,4-d]pyrrolo[2,3-b]pyridine-6(5H)-carboxamide] | B (B indicates % inhibition <80% and >20%) |  | 
